Legend:
[1] = i.m., 50 μl, various concentrations, after 7 days
Method: Paclitaxel (PTX) (Bristol-Myers Squibb, Princeton, N.J.), Doxorubicin (DOX) (Gensia, Irvine, Calif.), and Cisplatin (CIS) (Bristol-Myers Squibb) are diluted before injection. Cyclophosphamide (CTX) (Bristol-Myers Squibb) is diluted in sterile water before injection. PTX, CTX, Dox and CIS are injected intramuscularly (i.m.). (50 μl containing various concentrations of chemotherapeutic agents). Muscles are harvested and sectioned to perform histological analysis to assess tissue damage.

melanoma = conditions: pretreatment with low dose cyclophosphamide before melanoma vaccine, after 2 months of immunization; cited from earlier work
MCP-1 = assay: Paclitaxel induces MCP-1 in muscle tissue (RT-PCR); assay type: in vivo, Mice; conditions: i.m., muscle harvested 6 hours after injection
Method: Mice are injected intramuscularly (bilaterally) with varying doses of paclitaxel (100 μM to 0.01 μM). Doses of paclitaxel are prepared by 10-fold serial dilutions, in saline, of a 10 mM DMSO stock. The muscles are harvested, on dry ice, 6 hours following injection, and frozen at −80° C. RNA is isolated using TRIZOL reagent (Gibco) as per manufacturers specifications. Ten micrograms of total RNA is reverse transcribed using Superscript RT (Gibco), 500 ng oligodT primers (Gibco), and 250 ng Random Hexamer primers (Gibco) for 20 minutes at room temperature, followed by 2 hours at 42° C.
MCP-1 is amplified from 2 μl of reverse transcription reaction using Titanium PCR kit (Clontech). Amplification primers are as follows:
The PCR reaction is performed for 30 cycles using 100 pmole for each primer, with an annealing temperature of 68 degrees. The PCR products are analyzed on a 1.5% agarose gel, and have an expected size of 397 bps.

C2C12 cells = assay: Paclitaxel toxicity on differentiated C2C12 cells; assay type: cell-based; conditions: various concentrations, even high concentration, non-dividing cells
Method: […] cells were plated in a 12-wells plate at 7×10^4 cells/ml/well in complete DMEM (10 FBS, 1% Strepto-pen, 1% Hepes) and incubated O/N at 37° C. under 5% CO2 atmosphere. Twenty-four hours later, normal DMEM was changed for DMEM containing 2% Horse serum, 1% Strepto-pen and 1% Hepes. The medium was then changed everyday with the complete DMEM 2% Horse serum. For an extra 7 days, complete DMEM 10% Horse serum was added to the cells. After about 1 week, all cells were differentiated and treated with various concentrations of paclitaxel. Even at a high concentration of paclitaxel, differentiated cells now forming elongated muscular fibers, were not affected by any treatment probably due to the non-dividing state of the cells. This observation support the fact that drugs can be injected in the muscle without necessarily causing damages or cell death.

B16 cells = assay: Melanine levels in B16 cells pretreated with paclitaxel; assay type: cell-based
Method: This unexpected observation lead to the immunological rationale for testing immune-modulating doses of chemotherapy in combination with an antigen. As described in Example II, paclitaxel increased the humoral response against ovalbumin. The testing of paclitaxel as improving a whole-cell vaccine in mice was performed as shown in Examples III and V. This principle is illustrated in FIG. 1. Sterilizing cancer cells with chemotherapeutic agents before immunization of the mice with a composition of cancer cells undergoing apoptosis and/or necrosis and chemotherapeutic agents protected the animals against a lethal tumor challenge. This was unexpected since chemotherapeutic agents are known to be toxic and to trigger systemic immunosuppression. Also, to have in one single composition a chemotherapeutic agent(s) and an antigen administered simultaneously simplifies the use of chemotherapeutic agents as potential vaccine adjuvants. The presence of the chemotherapeutic agent in the anti-cancer vaccine composition also renders moot or diminish the need to proceed to the inactivation by irradiation of the tumoral cells forming the anti-cancer vaccine before reinoculation. The drugs, especially paclitaxel, helps to raise an immune response by inducing a variety of genes known to be antigenic. […]

ovalbumin = assay: Humoral response against ovalbumin (ELISA) after intramuscular immunization; assay type: in vivo, Mice; conditions: 1 μg ovalbumin i.m. without adjuvant, 2 weeks
Method: The animals are injected intramuscularly into tibialis anterior muscles with 50 μl containing either 1 μg of ovalbumin formulated with or without paclitaxel at 10E^−2 molar. Mice are sacrificed at various time points to perform the ELISA (2 weeks post-immunization). Ovalbumin-specific antibody responses are quantified by enzyme-linked immunosorbent assay (ELISA). Microtiter plates are coated overnight with 1 μg per well of ovalbumin. Plates are then washed once with PBS-Tween 0.01% and blocked for 2 hours at 37° C. with PBS+1% BSA. The plates are then incubated with serial dilutions of mouse sera for 1 hour at 37° C. […] The data are expressed as the percentage of responding mice and as the mean titers of responding mice.

Molecule: N.N.[Cl][Pt][Cl] [Cisplatin]
- infiltration of lymphocytes (histology of injected muscle) [1]: mild to moderate
- tissue damage (histology of injected muscle) [1]: no sign of tissue damage

Molecule: O=P1(N(CCCl)CCCl)NCCCO1 (stereo not drawn) [Cyclophosphamide]
- infiltration of lymphocytes (histology of injected muscle) [1]: mild to moderate
- tissue damage (histology of injected muscle) [1]: no sign of tissue damage
- patients with augmented antibody and/or cellular immune responses to melanoma (melanoma): 83%

Molecule: COc1cccc2c1C(=O)c1c(O)c3c(c(O)c1C2=O)C[C@@](O)(C(=O)CO)C[C@@H]3O[C@H]1C[C@H](N)[C@H](O)[C@H](C)O1 [Doxorubicin]
- infiltration of lymphocytes (histology of injected muscle) [1]: mild to moderate
- tissue damage (histology of injected muscle) [1]: no sign of tissue damage

Molecule: CC(=O)O[C@H]1C(=O)[C@@]2(C)[C@H]([C@H](OC(=O)c3ccccc3)[C@]3(O)C[C@H](OC(=O)[C@H](O)[C@@H](NC(=O)c4ccccc4)c4ccccc4)C(C)=C1C3(C)C)[C@]1(OC(C)=O)CO[C@@H]1C[C@@H]2O [Paclitaxel]
- Fold-induction over GAPDH (MCP-1 RT-PCR) (MCP-1; 0.01 μM per injection): 2 fold
- Fold-induction over GAPDH (MCP-1 RT-PCR) (MCP-1; 1 μM per injection): 3 fold
- Fold-induction over GAPDH (MCP-1 RT-PCR) (MCP-1; 100 μM per injection): 6 fold
- infiltration of lymphocytes (histology of injected muscle) [1]: mild to moderate
- tissue damage (histology of injected muscle) [1]: no sign of tissue damage
- effect on differentiated C2C12 cells (toxicity) (C2C12 cells): not affected
- Melanine levels in B16 cells (B16 cells): increases

B1: Ovalbumin: model protein antigen injected without adjuvant (protein, UniProt P01012 2-386, looked up)
Ovalbumin: GSIGAASMEFCFDVFKELKVHHANENIFYCPIAIMSALAMVYLGAKDSTRTQINKVVRFDKLPGFGDSIEAQCGTSVNVHSSLRDILNQITKPNDVYSFSLASRLYAEERYPILPEYLQCVKELYRGGLEPINFQTAADQARELINSWVESQTNGIIRNVLQPSSVDSQTAMVLVNAIVFKGLWEKAFKDEDTQAMPFRVTEQESKPVQMMYQIGLFRVASMASEKMKILELPFASGTMSMLVLLPDEVSGLEQLESIINFEKLTEWTSSNVMEERKIKVYLPRMKMEEKYNLTSVLMAMGITDVFSSSANLSGISSAESLKISQAVHAAHAEINEAGREVVGSAEAGVDAASVSEEFRADHPFLFCIKHIATNAVLFFGRCVSP
- % seroconversion (ovalbumin): 20%

From US20060051354A1, “Chemotherapeutic agents as anti-cancer vaccine adjuvants and therapeutic methods thereof” (priority 2002, published 2006)
